Assay results as given in publication PMC11579512, “Deoxybouvardin-glucoside induces apoptosis in non-small cell lung cancer cells by targeting EGFR/MET and AKT signaling pathway” (EXCLI Journal, 2024).

Columns and labels:
HCC827GR cells [1] = experiment: Soft agar anchorage-independent growth, HCC827GR; assay type: cell-based, human; conditions: 2 weeks
Protocol: The anchorage-independent cell growth assay was performed in 6-well plates with dual agar layers containing 0.6 % agar (lower layer) and 0.3 % agar (upper layer) supplemented with BME, 2 mM L-glutamine, 5 μg/ml gentamicin, and 10 % FBS. After 2 weeks of incubation, the number of colonies was assessed using a microscope (Leica, Wetzlar, Germany), and the mean colony area was analyzed using i-Solution ^TM software (Vancouver, BC, Canada).

Bcl-2 = experiment: Immunoblot Bcl-2 in HCC827 and HCC827GR cells; assay type: cell-based, human; conditions: for BCl-2 protein Ratio: DBG 0 nM = 1.00
Protocol: (§1) HaCaT cells were grown in DMEM, whereas HCC827 and HCC827GR cells were grown in RPMI 1640. All culture media were supplemented with FBS (10 %) and P/S (1 %), and the cells were grown at 37 °C in 5 % CO2.
(§2) Cells were lysed in RIPA buffer, and protein concentration was determined using a Bio-Rad DC Protein Assay kit (Bio-Rad, Hercules, CA, USA). Protein samples from the cell lysates were resolved by sodium dodecyl sulfate-polyacrylamide gel electrophoresis and then transferred onto polyvinylidene fluoride membranes. The membranes were blocked with 3 % or 5 % skim milk and then incubated at 4 °C overnight with the indicated primary antibodies, followed by the corresponding horseradish peroxidase-conjugated secondary antibodies at RT for 2 h. Protein bands were visualized using western blotting luminol reagent solution and ImageQuant LAS 500 (GE Healthcare, Uppsala, Sweden). The density of the bands was quantified using ImageJ software (NIH, Bethesda, MD, USA).

p-EGFR = experiment: Immunoblot p-EGFR with NAC pretreatment, HCC827 and HCC827GR cells; assay type: cell-based, human; conditions: for p-EGFR protein Ratio: control = 1.00
Protocol: as §1, §2

CDK2 = experiment: Immunoblot CDK2 in HCC827 and HCC827GR cells; assay type: cell-based, human; conditions: for CDK2 protein ratio: relative to DBG 0 nM = 1.00
Protocol: as §1, §2

p-MET = experiment: Immunoblot p-MET with NAC pretreatment, HCC827 and HCC827GR cells; assay type: cell-based, human; conditions: for p-MET protein Ratio: control = 1.00
Protocol: as §1, §2

CDK6 = experiment: Immunoblot CDK6 in HCC827 and HCC827GR cells; assay type: cell-based, human; conditions: for CDK6 protein ratio: relative to DBG 0 nM = 1.00
Protocol: as §1, §2

p-AKT (S473) = experiment: Western blot p-AKT (S473) in HCC827 and HCC827GR cells; assay type: cell-based, human; conditions: DBG 3, 6, 12 nM, 48 h
Protocol: as §1, §2

HCC827GR cells [2] = experiment: Intracellular ROS (Muse Oxidative Stress Kit), HCC827GR; assay type: cell-based, human; conditions: 48 h, control 16.69 %
Protocol: as §1
The levels of intracellular ROS were measured using a Muse™ Oxidative Stress Kit (MCH100111, Merck Millipore) in accordance with the manufacturer's instructions. The cells were incubated with a Muse™ Oxidative Stress Reagent working solution in the dark at 37 °C for 30 min. Intracellular ROS generation was measured using a Muse™ Cell Analyzer.

MET = molecular target: T1, MET (Homo sapiens, UniProt P08581); experiment: In vitro ADP-Glo kinase assay, MET; assay type: biochemical
T1 construct: purchased Promega
Protocol: (§3) Subsequently, each well was added with ADP-Glo reagent and incubated for another 40 min. After completion of the kinase reaction, each well was added with kinase activity detection reagent and then incubated for 30 min. Liquid was dispensed with I.DOT (Dispendix, Stuttgart, Germany). Luminescence was measured on a Centro LB 960 microplate luminometer (Berthold Technologies).

p27 = experiment: Immunoblot p27 in HCC827 and HCC827GR cells; assay type: cell-based, human
Protocol: as §1, §2

AKT1 = molecular target: T2, AKT1 (Homo sapiens, UniProt P31749); experiment: In vitro ADP-Glo kinase assay, AKT1; assay type: biochemical
T2 construct: purchased Promega
Protocol: as §3

[3] = NAC 4 mM pretreatment, DBG 48 h

T1 sequence (P08581 25-1390): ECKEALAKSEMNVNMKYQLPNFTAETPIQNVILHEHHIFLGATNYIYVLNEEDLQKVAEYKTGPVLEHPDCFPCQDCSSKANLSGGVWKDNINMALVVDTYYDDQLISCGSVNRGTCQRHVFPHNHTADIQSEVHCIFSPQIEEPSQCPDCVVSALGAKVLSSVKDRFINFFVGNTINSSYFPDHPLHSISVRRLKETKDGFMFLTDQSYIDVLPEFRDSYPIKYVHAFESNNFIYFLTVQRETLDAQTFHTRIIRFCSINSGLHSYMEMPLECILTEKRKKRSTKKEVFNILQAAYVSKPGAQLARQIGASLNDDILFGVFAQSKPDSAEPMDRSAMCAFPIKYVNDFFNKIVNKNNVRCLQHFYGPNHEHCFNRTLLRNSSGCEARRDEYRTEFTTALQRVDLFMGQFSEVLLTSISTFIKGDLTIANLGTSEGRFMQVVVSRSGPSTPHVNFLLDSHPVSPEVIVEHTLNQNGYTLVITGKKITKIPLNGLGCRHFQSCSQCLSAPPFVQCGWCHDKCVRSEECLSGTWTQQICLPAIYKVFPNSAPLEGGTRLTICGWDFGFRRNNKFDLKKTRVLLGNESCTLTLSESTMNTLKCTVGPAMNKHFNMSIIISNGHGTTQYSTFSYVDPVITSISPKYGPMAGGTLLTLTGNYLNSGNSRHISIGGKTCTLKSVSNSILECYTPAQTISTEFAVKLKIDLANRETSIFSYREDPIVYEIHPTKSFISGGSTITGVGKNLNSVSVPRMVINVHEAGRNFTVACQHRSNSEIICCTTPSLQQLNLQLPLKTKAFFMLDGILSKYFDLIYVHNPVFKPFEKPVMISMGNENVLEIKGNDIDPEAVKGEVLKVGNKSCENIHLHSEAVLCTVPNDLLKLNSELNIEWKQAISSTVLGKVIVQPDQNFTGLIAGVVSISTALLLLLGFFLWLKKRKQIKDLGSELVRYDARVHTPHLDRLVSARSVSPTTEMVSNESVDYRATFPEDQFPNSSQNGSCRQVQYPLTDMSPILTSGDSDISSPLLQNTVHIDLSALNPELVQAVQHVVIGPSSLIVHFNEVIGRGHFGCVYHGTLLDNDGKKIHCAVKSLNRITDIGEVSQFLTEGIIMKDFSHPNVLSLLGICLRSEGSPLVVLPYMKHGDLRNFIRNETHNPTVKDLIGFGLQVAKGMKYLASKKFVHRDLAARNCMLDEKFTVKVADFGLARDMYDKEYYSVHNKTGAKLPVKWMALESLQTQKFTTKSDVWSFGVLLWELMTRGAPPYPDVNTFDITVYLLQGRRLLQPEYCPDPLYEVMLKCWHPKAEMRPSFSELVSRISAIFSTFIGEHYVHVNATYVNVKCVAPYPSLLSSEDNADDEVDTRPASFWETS
T2 sequence (P31749 whole entry): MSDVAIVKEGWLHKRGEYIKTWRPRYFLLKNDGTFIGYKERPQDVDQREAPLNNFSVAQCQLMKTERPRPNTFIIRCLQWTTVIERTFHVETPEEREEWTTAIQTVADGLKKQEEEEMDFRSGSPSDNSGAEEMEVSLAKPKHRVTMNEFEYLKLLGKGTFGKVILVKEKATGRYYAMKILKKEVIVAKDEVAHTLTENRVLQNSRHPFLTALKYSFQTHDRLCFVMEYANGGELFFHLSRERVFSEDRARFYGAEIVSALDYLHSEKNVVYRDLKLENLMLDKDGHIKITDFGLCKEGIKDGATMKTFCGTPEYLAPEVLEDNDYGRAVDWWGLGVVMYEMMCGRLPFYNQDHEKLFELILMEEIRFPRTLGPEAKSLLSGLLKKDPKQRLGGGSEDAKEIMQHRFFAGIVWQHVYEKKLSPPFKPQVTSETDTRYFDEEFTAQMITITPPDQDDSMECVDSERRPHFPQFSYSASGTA

## COc1ccc(C[C@H]2C(=O)N[C@@H](C)C(=O)N(C)[C@H]3Cc4ccc(cc4)Oc4cc(ccc4O[C@@H]4O[C@H](CO)[C@@H](O)[C@H](O)[C@H]4O)C[C@@H](C(=O)N[C@H](C)C(=O)N[C@@H](C)C(=O)N2C)N(C)C3=O)cc1 [DBG, deoxybouvardin glucoside]
HCC827GR cells [1]; DBG 3 nM
  colony number, Control %: 40.00%
  colony size, Control %: 77.33%
HCC827GR cells [1]; DBG 6 nM
  colony number, Control %: 13.10%
  colony size, Control %: 72.67%
HCC827GR cells [1]; DBG 12 nM
  colony number, Control %: 0.00%
  colony size, Control %: 0.00%
Bcl-2; HCC827, DBG 3 nM, DBG 0 nM 0.55
  BCl-2 protein/actin: 0.30
Bcl-2; HCC827, DBG 3 nM
  BCl-2 protein Ratio: 0.55
Bcl-2; HCC827, DBG 6 nM, DBG 0 nM 0.55
  BCl-2 protein/actin: 0.21
Bcl-2; HCC827, DBG 6 nM
  BCl-2 protein Ratio: 0.39
Bcl-2; HCC827, DBG 12 nM, DBG 0 nM 0.55
  BCl-2 protein/actin: 0.19
Bcl-2; HCC827, DBG 12 nM
  BCl-2 protein Ratio: 0.36
Bcl-2; HCC827GR, DBG 3 nM, DBG 0 nM 0.66
  BCl-2 protein/actin: 0.59
Bcl-2; HCC827GR, DBG 3 nM
  BCl-2 protein Ratio: 0.89
Bcl-2; HCC827GR, DBG 6 nM, DBG 0 nM 0.66
  BCl-2 protein/actin: 0.47
Bcl-2; HCC827GR, DBG 6 nM
  BCl-2 protein Ratio: 0.70
Bcl-2; HCC827GR, DBG 12 nM, DBG 0 nM 0.66
  BCl-2 protein/actin: 0.19
Bcl-2; HCC827GR, DBG 12 nM
  BCl-2 protein Ratio: 0.29
Bcl-2; NSCLC cells, DBG
  level of Bcl-2: downregulated
p-EGFR; HCC827, DBG 12 nM, control 0.90
  p-EGFR protein/actin: 0.25
p-EGFR; HCC827, DBG 12 nM
  p-EGFR protein Ratio: 0.27
p-EGFR; HCC827, NAC 4 mM + DBG 12 nM, control 0.90
  p-EGFR protein/actin: 0.27
p-EGFR; HCC827, NAC 4 mM + DBG 12 nM
  p-EGFR protein Ratio: 0.30
p-EGFR; HCC827GR, DBG 12 nM, control 0.93
  p-EGFR protein/actin: 0.40
p-EGFR; HCC827GR, DBG 12 nM
  p-EGFR protein Ratio: 0.43
p-EGFR; HCC827GR, NAC 4 mM + DBG 12 nM, control 0.93
  p-EGFR protein/actin: 0.30
p-EGFR; HCC827GR, NAC 4 mM + DBG 12 nM
  p-EGFR protein Ratio: 0.32
p-EGFR; [3]
  DBG-decreased phosphorylation of EGFR with NAC: did not change
CDK2; DBG 3, 6, 12 nM, 48 h
  level of CDKs (CDK2): significantly decreased
CDK2; HCC827, DBG 3 nM, DBG 0 nM 0.56
  CDK2 protein/actin: 0.43
CDK2; HCC827, DBG 3 nM
  CDK2 protein ratio: 0.77
CDK2; HCC827, DBG 6 nM, DBG 0 nM 0.56
  CDK2 protein/actin: 0.20
CDK2; HCC827, DBG 6 nM
  CDK2 protein ratio: 0.36
CDK2; HCC827, DBG 12 nM, DBG 0 nM 0.56
  CDK2 protein/actin: 0.17
CDK2; HCC827, DBG 12 nM
  CDK2 protein ratio: 0.30
CDK2; HCC827GR, DBG 3 nM, DBG 0 nM 0.58
  CDK2 protein/actin: 0.44
CDK2; HCC827GR, DBG 3 nM
  CDK2 protein ratio: 0.76
CDK2; HCC827GR, DBG 6 nM, DBG 0 nM 0.58
  CDK2 protein/actin: 0.36
CDK2; HCC827GR, DBG 6 nM
  CDK2 protein ratio: 0.62
CDK2; HCC827GR, DBG 12 nM, DBG 0 nM 0.58
  CDK2 protein/actin: 0.25
CDK2; HCC827GR, DBG 12 nM
  CDK2 protein ratio: 0.44
p-MET; HCC827, DBG 12 nM, control 1.17
  p-MET protein/actin: 0.27
p-MET; HCC827, DBG 12 nM
  p-MET protein Ratio: 0.23
p-MET; HCC827, NAC 4 mM + DBG 12 nM, control 1.17
  p-MET protein/actin: 0.40
p-MET; HCC827, NAC 4 mM + DBG 12 nM
  p-MET protein Ratio: 0.34
p-MET; HCC827GR, DBG 12 nM, control 1.14
  p-MET protein/actin: 0.44
p-MET; HCC827GR, DBG 12 nM
  p-MET protein Ratio: 0.39
p-MET; HCC827GR, NAC 4 mM + DBG 12 nM, control 1.14
  p-MET protein/actin: 0.21
p-MET; HCC827GR, NAC 4 mM + DBG 12 nM
  p-MET protein Ratio: 0.18
p-MET; [3]
  DBG-decreased phosphorylation of MET with NAC: did not change
CDK6; DBG 3, 6, 12 nM, 48 h
  level of CDKs (CDK6): significantly decreased
CDK6; HCC827, DBG 3 nM, DBG 0 nM 0.53
  CDK6 protein/actin: 0.32
CDK6; HCC827, DBG 3 nM
  CDK6 protein ratio: 0.60
CDK6; HCC827, DBG 6 nM, DBG 0 nM 0.53
  CDK6 protein/actin: 0.19
CDK6; HCC827, DBG 6 nM
  CDK6 protein ratio: 0.36
CDK6; HCC827, DBG 12 nM, DBG 0 nM 0.53
  CDK6 protein/actin: 0.07
CDK6; HCC827, DBG 12 nM
  CDK6 protein ratio: 0.14
CDK6; HCC827GR, DBG 3 nM, DBG 0 nM 0.70
  CDK6 protein/actin: 0.55
CDK6; HCC827GR, DBG 3 nM
  CDK6 protein ratio: 0.79
CDK6; HCC827GR, DBG 6 nM, DBG 0 nM 0.70
  CDK6 protein/actin: 0.47
CDK6; HCC827GR, DBG 6 nM
  CDK6 protein ratio: 0.67
CDK6; HCC827GR, DBG 12 nM, DBG 0 nM 0.70
  CDK6 protein/actin: 0.30
CDK6; HCC827GR, DBG 12 nM
  CDK6 protein ratio: 0.43
p-AKT (S473)
  phosphorylation level of AKT: decreased
HCC827GR cells [2]; DBG 3 nM
  ROS level: 36.89%
HCC827GR cells [2]; DBG 6 nM
  ROS level: 39.97%
HCC827GR cells [2]; DBG 12 nM
  ROS level: 47.92%
MET; ADP-Glo, MET 4 ng, RT, 60 min, luminescence, n=3
  IC50: 7.26 nM
MET; DBG 3, 6, 12 nM
  kinase activity, in words: significantly inhibited
p27; DBG, 48 h
  level of p27: increasing p27
p27; HCC827, DBG 3 nM, DBG 0 nM 0.14
  p27 protein/actin: 0.14
p27; HCC827, DBG 3 nM, relative to DBG 12 nM = 1.00, DBG 0 nM 0.34
  p27 protein ratio: 0.33
p27; HCC827, DBG 6 nM, DBG 0 nM 0.14
  p27 protein/actin: 0.40
p27; HCC827, DBG 6 nM, relative to DBG 12 nM = 1.00, DBG 0 nM 0.34
  p27 protein ratio: 0.96
p27; HCC827, DBG 12 nM (set to 1.00), DBG 0 nM 0.34
  p27 protein ratio: 1.00
p27; HCC827, DBG 12 nM, DBG 0 nM 0.14
  p27 protein/actin: 0.42
p27; HCC827GR, DBG 3 nM, DBG 0 nM 0.06
  p27 protein/actin: 0.09
p27; HCC827GR, DBG 3 nM, relative to DBG 12 nM = 1.00, DBG 0 nM 0.08
  p27 protein ratio: 0.11
p27; HCC827GR, DBG 6 nM, DBG 0 nM 0.06
  p27 protein/actin: 0.69
p27; HCC827GR, DBG 6 nM, relative to DBG 12 nM = 1.00, DBG 0 nM 0.08
  p27 protein ratio: 0.90
p27; HCC827GR, DBG 12 nM (set to 1.00), DBG 0 nM 0.08
  p27 protein ratio: 1.00
p27; HCC827GR, DBG 12 nM, DBG 0 nM 0.06
  p27 protein/actin: 0.77
AKT1; ADP-Glo, AKT1 10 ng, RT, 60 min, luminescence, n=3
  IC50: 6.86 nM
AKT1; DBG 3, 6, 12 nM
  kinase activity, in words: significantly inhibited
